According to article PMC10606064, “2-Aminothiazole-Flavonoid Hybrid Derivatives Binding to Tau Protein and Responsible for Antitumor Activity in Glioblastoma” (International Journal of Molecular Sciences, 2023):

Columns and labels:
U138 glioblastoma cells = assay: MTT cell viability assay, U138; assay type: cell-based; settings: Homo sapiens, U138, 72 h, mean ± SEM, read-out: IC50 (metabolic activity)
Procedure: Cells harvested from sub-confluent monolayers were seeded at 15,000 cells per mL in a 96-well microtiter plate (Cambridge Technology, Labège, France) and cultured for 24 h under standard conditions. Standard medium was then replaced by fresh medium containing no drugs or compounds at different concentrations. The surviving cells were quantified after 72 h by the MTT assay, according to the manufacturer’s instructions. Briefly, 20 µL of 3-(4,5-diMethylThiazol-2-yl)-2,5diphenyl Tetrazolium bromide (MTT) solution at 5 mg.mL^−1 was added to cells for 3 h at 37 °C. The supernatant was discarded and replaced by 100 µL of dimethyl sulfoxide to dissolve formazan crystals. The absorbance was then read at 600 nm by spectrophotometry. For all concentrations of a given compound, cell viability was expressed as the percentage of the ratio between the mean absorbance of treated cells and the mean absorbance of untreated cells. Three independent experiments were performed, and the data were expressed as percentage of survival (using the untreated cells as 100%) and subjected to statistical analysis (n = 3). The IC50 was calculated using the Chou and Talalay method.

U87 shTau cells = assay: Microtubule network analysis (alpha-tubulin immunofluorescence), U87 shTau; assay type: cell-based, human; settings: 0–20 µM, 24 h
Procedure: For indirect immunofluorescence of mitochondria, 10^4 cells were plated on cover glass and incubated for 24 h with compounds. Cells were then fixed in 4% formaldehyde (in PBS pH 7.4) for 20 min at RT, permeabilized with PBS-Triton X-100 0.5% for 10 min at RT. Immunostaining was carried out overnight at 4 °C with a primary anti-citrate synthase antibody (dilution 1:400 in PBS-BSA 3%; SC390693; SantaCruz Biotechnologies, Heidelberg, Germany). […] Each image was recorded with the CLSM’s spectral mode selecting specific domains of the emission spectrum. The Alexafluor488 and FITC fluorophores were excited at 488 nm with an argon laser, and fluorescence emission was collected between 496 nm and 535 nm. The TRITC fluorophore was excited at 543 nm with a helium–neon laser, and fluorescence was collected between 560 and 620 nm. […]
The analyses of mitochondria and microtubule networks were performed using, respectively, the ‘Mitochondria analyzer’ plugin for Fiji v1.54f software and the method described in our earlier work. Briefly, a series of images were transferred to the software and corrected for background fluorescence intensity contribution. Next, the surface of 50 single cells was measured by considering the cell shape as the boundary of labelling of actin or α-tubulin cytoskeletons (respectively for measurement on mitochondria or microtubules). […]

[1] = biological target: T1, Tau protein (full-length human Tau, hTau40) (Homo sapiens, UniProt P10636); assay: Tau intrinsic fluorescence quenching, modified Stern–Volmer binding parameters; settings: 5 µM Tau, buffer B pH 6.8, mean ± SD; for Kd: read-out: Equilibrium Binding Constants to Tau, KD
T1 construct: The full-length human Tau (hTau40) was expressed in a transformed E. coli BL21 (DE3) strain; made in house; host or cells: E. coli BL21 (DE3)
T1 sequence (P10636 1-441 isoform P10636-8): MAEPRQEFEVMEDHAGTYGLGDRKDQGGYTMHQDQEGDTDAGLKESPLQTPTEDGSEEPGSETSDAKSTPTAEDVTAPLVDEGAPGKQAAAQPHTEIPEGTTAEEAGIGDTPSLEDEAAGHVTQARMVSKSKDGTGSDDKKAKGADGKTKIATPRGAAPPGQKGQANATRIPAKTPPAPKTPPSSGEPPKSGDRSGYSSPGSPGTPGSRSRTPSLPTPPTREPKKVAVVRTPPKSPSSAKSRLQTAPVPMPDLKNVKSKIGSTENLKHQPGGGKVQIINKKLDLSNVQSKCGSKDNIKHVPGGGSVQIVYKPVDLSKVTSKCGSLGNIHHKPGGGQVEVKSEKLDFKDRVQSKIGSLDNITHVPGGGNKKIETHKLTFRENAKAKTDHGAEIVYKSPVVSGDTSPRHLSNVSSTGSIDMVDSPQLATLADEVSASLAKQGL
Procedure: Fluorescence measurements were performed with a Horiba Jobin Yvon FluoroMax-3 spectrofluorometer. […] For experiments, the excitation wavelength was fixed at 275 nm, and the emission spectra were recorded between 280 nm and 500 nm at room temperature. The inner filter effects were corrected according to Lakowicz as follows:F = Fobs × exp{(Aem + Aex)/2}(2) where Fobs and F are the observed and corrected fluorescence values at the emission wavelength of 303 nm. Aex and Aem are the absorptions at the excitation and emission wavelengths, respectively, calculated with A = ε.l.C, in which ε is the extinction coefficient of Tau, l is the path length of cuvette, and C is Tau concentration.
The total fluorescence in the absence of quencher (F0) is given by:F0 = F0a + F0b(4) where 0 refers to the fluorescence intensity in the absence of quencher.
In the presence of quencher, we defined fa as the fraction of the initial fluorescence of Tau accessible to compounds:fa = F0a/(F0a + F0b)(5)
Therefore, the intensity of the accessible fraction (fa) is decreased according to the Stern–Volmer equation, whereas the buried fraction is not quenched, as given by:F = {F0a/(1 + K.[Q])} + F0b(6)
Then, subtraction of Equations (6) and (4) yields:ΔF = F0 − F = F0a × {K.[Q]/(1 + K.[Q])}(7)
At last, inversion of Equation (7) followed by division into Equation (4) yields:F0/ΔF = {1/(fa.K.[Q])} + 1/fa(8)
We applied this modified form of the Stern–Volmer equation to graphically determine the values of fa and K. For our experiments, we plotted F0/ΔF against 1/[Q], then we determined the fa value at the point of intersection with the y-axis, while the slope represented (faK)^−1.

[2] = system: U87 shCTRL and U87 shTau cells; assay: Acridine orange spectrofluorometry (late autophagy); assay type: cell-based, human; settings: both cell types, 5 µM, 48 h
Procedure: Briefly, 2.10^5 cells in exponential growth were seeded in 6-well plates. After 24 h, they were treated with 5 µM of compounds for 48 h. Trypsinized cells were harvested, counted, and then centrifuged (1200 rpm, 5 min, at RT). The cells pellet was resuspended in 2 mL of acridine orange diluted in complete culture media to a final concentration of 1 µg/mL and incubated for 15 min in the dark. Cells were then collected by centrifugation (1200 rpm, 5 min, at RT). The cells pellet was resuspended in PBS to a suspension concentration of 2.10^5 cells/mL. The suspension was transferred to a quartz cuvette, and then fluorescence emission of acridine orange was measured with a FluoroMax-3 spectrofluorometer (Horiba Jobin Yvon, Palaisseau, France) (excitation at 490 nm).

| SMILES | IC50 (U138 glioblastoma cells) | change of microtubule network (U87 shTau cells) | Equilibrium Binding Constants to Tau, fA (Tyr accessible fraction) [1] | Kd [1] | acridine orange fluorescence emission [2] |
| --- | --- | --- | --- | --- | --- |
| Nc1nc2ccc3oc(C(=O)O)cc(=O)c3c2s1 [Compound 5] | > 100 µM | no change | 0.38 ± 0.01 | 6.4 ± 1.5 µM | shift to blue emission |
| Nc1nc2ccc3oc(-c4cccc(Oc5ccccc5)c4)cc(=O)c3c2s1 [Compound 2, 2-amino-7-(3-phenoxyphenyl)-9H-chromeno [6,5-d]thiazol-9-one] | 2.3 ± 1 µM | no change | 0.14 ± 0.10 | 4.7 ± 1.8 µM | shift to blue emission |
